Four compounds from BindingDB's records for doi:10.1016/j.bmc.2004.10.008 (Mitsubishi Pharma, 2005) can be followed below.

What all share (experiment): [32P] S1P Binding Assay
Holding throughout (conditions): pH 7.5; 4 °C

In assay [1] the target is T1, Sphingosine 1-phosphate receptor 4 (Homo sapiens, UniProt O95977).
T1 sequence (O95977 whole entry): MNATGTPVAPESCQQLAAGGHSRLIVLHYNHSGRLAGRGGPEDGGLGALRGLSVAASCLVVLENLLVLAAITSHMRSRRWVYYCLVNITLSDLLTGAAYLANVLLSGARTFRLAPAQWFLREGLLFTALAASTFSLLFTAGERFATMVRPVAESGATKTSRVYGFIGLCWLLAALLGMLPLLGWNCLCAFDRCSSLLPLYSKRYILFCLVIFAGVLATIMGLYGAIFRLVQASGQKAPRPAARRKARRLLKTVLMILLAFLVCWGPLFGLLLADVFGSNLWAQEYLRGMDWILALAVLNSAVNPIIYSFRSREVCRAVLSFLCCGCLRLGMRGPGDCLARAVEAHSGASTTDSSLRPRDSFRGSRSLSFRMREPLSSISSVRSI

Assay [2] concerns the target Sphingosine 1-phosphate receptor 1 (Homo sapiens, UniProt P21453).
In assay [3] the target is Sphingosine 1-phosphate receptor 3 (Homo sapiens, UniProt Q99500).

Structures are written as SMILES. pKi: −log10 of the molar value.

Sphingosine 1-phosphate receptor 1, sequence (P21453 whole entry): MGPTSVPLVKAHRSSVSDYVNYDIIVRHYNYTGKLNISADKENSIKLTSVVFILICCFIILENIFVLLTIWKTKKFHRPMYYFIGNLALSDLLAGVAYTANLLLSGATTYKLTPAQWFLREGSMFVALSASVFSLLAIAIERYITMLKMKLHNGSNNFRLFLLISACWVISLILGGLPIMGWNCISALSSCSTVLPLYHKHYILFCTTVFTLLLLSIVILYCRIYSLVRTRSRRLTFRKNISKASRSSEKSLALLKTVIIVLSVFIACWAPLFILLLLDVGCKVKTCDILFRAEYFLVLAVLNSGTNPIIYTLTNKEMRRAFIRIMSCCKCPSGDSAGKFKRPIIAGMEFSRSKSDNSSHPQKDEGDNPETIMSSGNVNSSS
Sphingosine 1-phosphate receptor 3, sequence (Q99500 whole entry): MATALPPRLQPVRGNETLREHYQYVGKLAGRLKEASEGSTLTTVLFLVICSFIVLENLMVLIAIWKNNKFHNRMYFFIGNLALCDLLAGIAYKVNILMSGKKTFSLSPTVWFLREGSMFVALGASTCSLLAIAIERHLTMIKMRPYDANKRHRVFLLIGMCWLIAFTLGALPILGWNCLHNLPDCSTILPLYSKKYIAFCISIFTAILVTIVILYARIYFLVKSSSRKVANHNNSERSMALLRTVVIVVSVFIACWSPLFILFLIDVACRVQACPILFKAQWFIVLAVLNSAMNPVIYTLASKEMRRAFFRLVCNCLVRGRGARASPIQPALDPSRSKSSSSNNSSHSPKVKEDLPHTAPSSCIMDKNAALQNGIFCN

With `CCCCCCCCc1ccc(CCC(N)(CO)COP(=O)(O)O)cc1` (stereo unspecified) [{2-amino-3-hydroxy-2-[2-(4-octylphenyl)ethyl]propoxy}phosphonic acid], in assay [1], the negative logarithm of the Ki (pKi) (commonly −log10 of the Ki, conventionally taken in molar units) was 7.43.

Take `CCCCCCCCc1ccc(CC[C@@](N)(CO)COP(=O)(O)O)cc1`: the negative logarithm of the Ki (pKi) in assay [1] was 6.98. `CCCCCCCCc1ccc(CC[C@](N)(CO)COP(=O)(O)O)cc1` gave a negative-log Ki (pKi) in assay [1] of 7.64.

For the compound `CCCCCCCCCCCCC/C=C\C(O)C(N)COP(=O)(O)O` (stereo unspecified) [{[(4Z)-2-amino-3-hydroxyoctadec-4-en-1-yl]oxy}phosphonic acid], the values for the pKi in assay [1], in assay [2] and in assay [3] were 8.57, 8.92 and 8.27, respectively.
